US20250376468A1, “PYRAZOLO[1,5-a]PYRIDINE DERIVATIVES FOR TREATING TRPM3-MEDIATED DISORDERS” (Katholieke Universiteit Leuven, priority 2022, published 2025)

Each compound was assayed against T1, mouse TRPM3α2 (mTRPM3) ion channel (Mus musculus, UniProt J9SQF3) (assay: TRPM3 ion channel driven Ca2+ uptake, Fluo-4 AM assay, stimulated with pregnenolone sulfate (50 μM)). Settings: TRPM3 overexpressing flip-in HEK293 cells, PS 50 μM, 2.4 mM Ca2+.
T1 construct: expressed in transfected cells; host or cells: flip-in HEK293 (Flp-In HEK293) overexpressing mTRPM3alpha2
T1 sequence (J9SQF3 1-1709 isoform J9SQF3-12): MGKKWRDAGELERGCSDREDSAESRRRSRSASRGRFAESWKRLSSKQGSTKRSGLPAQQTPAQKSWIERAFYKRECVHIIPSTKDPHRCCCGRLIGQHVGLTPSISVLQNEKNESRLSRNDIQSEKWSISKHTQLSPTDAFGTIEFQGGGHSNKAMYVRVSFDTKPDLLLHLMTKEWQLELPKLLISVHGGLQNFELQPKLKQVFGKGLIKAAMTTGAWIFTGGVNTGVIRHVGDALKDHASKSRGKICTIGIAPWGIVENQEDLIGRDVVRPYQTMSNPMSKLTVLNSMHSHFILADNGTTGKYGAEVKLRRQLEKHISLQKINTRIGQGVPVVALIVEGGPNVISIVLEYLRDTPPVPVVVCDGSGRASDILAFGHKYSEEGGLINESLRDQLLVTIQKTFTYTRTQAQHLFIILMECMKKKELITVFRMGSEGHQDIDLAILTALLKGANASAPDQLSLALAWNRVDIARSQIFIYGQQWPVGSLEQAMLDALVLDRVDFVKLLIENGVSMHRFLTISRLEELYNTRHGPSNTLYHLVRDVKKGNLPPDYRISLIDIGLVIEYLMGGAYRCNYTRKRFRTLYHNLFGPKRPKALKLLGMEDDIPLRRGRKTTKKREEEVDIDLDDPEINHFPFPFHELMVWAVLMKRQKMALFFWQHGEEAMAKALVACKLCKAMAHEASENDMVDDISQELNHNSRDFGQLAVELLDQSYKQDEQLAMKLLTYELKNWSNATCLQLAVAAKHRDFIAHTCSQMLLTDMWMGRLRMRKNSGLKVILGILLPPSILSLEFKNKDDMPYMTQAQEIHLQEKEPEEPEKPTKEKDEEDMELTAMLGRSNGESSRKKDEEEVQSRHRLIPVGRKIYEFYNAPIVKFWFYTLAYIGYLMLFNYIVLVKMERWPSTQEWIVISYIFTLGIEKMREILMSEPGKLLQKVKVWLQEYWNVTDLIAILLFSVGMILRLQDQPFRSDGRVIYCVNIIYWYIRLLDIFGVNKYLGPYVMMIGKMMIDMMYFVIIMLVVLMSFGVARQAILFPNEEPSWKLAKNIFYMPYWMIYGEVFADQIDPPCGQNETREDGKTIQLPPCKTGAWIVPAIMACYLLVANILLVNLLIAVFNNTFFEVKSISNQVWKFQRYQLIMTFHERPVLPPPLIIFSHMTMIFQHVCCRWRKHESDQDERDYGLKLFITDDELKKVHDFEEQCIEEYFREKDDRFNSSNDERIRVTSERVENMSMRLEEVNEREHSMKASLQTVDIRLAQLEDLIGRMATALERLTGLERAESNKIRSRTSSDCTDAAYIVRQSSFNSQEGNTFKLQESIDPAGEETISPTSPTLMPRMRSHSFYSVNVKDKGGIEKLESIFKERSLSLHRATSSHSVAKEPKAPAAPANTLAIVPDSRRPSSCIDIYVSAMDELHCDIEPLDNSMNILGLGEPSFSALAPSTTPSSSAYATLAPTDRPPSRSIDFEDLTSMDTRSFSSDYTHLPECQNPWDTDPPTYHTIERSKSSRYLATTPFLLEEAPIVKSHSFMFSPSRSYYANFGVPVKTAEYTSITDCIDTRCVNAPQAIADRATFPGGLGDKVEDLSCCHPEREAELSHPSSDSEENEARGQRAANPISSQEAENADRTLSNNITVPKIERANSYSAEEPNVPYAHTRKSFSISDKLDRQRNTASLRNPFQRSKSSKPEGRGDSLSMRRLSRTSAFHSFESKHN
Type: cell-based
Experimental: In order to monitor the inhibition of the mouse TRPM3α2 (mTRPM3) ion channel by the compounds of the invention, a cellular system making use of an mTRPM3alpha2 or hTRPM3 overexpressing cell line (flip-in HEK293) was used. The TRPM3 channel was stimulated/opened with Pregnenolone sulfate (PS) (50 μM) which results in Ca^2+ influx.
For mTRPM3, the intracellular Ca^2+ was measured with a Calcium responsive dye, Fluor-4 AM ester (Invitrogen). Cells were cultured until a confluence of 80-90%, washed with Versene (Invitrogen) and detached from the surface by a short incubation with 0.05% Trypsin (Invitrogen). The […] was stopped by the addition of complete cell culture medium (DMEM, glutamax, 10% FCS, NEAA, Pen-Strep). Cells were collected and resuspended in Krebs buffer without Calcium at RT.
Prior the cell seeding (±2000 cells/well into a black, 384 well plate (Greiner)) the diluted compound was added in the assay plate, together with the PS dissolved in Krebs buffer containing Calcium. […] Directly after cell addition the plates were read on an Envision fluorescence reader (Perkin Elmer) by an Excitation of 485 nm and emission at 535 nm.
Channel inhibition was calculated compared to a non-PS stimulated control versus a condition stimulated with PS (50 μM) with vehicle. The ability of the compounds of the invention to inhibit this activity was determined as: Percentage inhibition=[1−((RFU determined for sample with test compound present−RFU determined for sample with positive control inhibitor) divided by (RFU determined in the presence of vehicle−RFU determined for sample with positive control inhibitor))]*100.
The activities of the Example compounds cpd 001-091 tested are depicted in the table below. All tested compounds show an activity in the Fluo-4 AM assay. The activity ranges A, B and C refer to IC50 values in the Fluo-4 AM assay as follows: “A”: IC50<1 μM; “B”: 1 μM≤IC50≤20 μM and “C”: IC50>20 μM.

SMILES | IC50
Cc1nn2ccc(OCc3ccccc3Cl)cc2c1C(=O)NC(C)(C)C(N)=O [Cpd 013, 2-({5-[(2-chlorophenyl)methoxy]-2-methylpyrazolo[1,5-a]pyridin-3-yl}formamido)-2-methylpropanamide] | 1 to 20 µM
Cc1nn2ccc(OCc3ccccn3)cc2c1C(=O)N[C@@]1(CO)C[C@H]1C(F)F (relative stereo) [Cpd 072 - En2, N-[cis-2-(difluoromethyl)-1-(hydroxymethyl)cyclopropyl]-2-methyl-5-[(pyridin-2-yl)methoxy]pyrazolo[1,5-a]pyridine-3-carboxamide] | > 20 µM
Cc1nn2ccc(OCc3ccccc3F)cc2c1C(=O)N(C)C(C)(CO)C(N)=O (single isomer, unassigned) [Cpd 024 - En2, 2-(1-{5-[(2-fluorophenyl)methoxy]-2-methylpyrazolo[1,5-a]pyridin-3-yl}-N-methylformamido)-3-hydroxy-2-methylpropanamide] | 1 to 20 µM

Other lines, results leading:

IC50 | SMILES
1 to 20 µM | Cc1nn2ccc(OCc3ccccn3)cc2c1C(=O)NC1CNCCC1(F)F (single isomer, unassigned) [Cpd 050 - En2, N-(4,4-difluoropiperidin-3-yl)-2-methyl-5-[(pyridin-2-yl)methoxy]pyrazolo[1,5-a]pyridine-3-carboxamide]
> 20 µM | Cc1nn2ccc(OCc3ccccn3)cc2c1C(=O)NC(C)(CO)C(N)=O (single isomer, unassigned) [Cpd 089 - En1, 3-hydroxy-2-methyl-2-({2-methyl-5-[(pyridin-2-yl)methoxy]pyrazolo[1,5-a]pyridin-3-yl}formamido)propanamide]
